In one data set the test system is S. pyogenes. In words: Antimicrobial assay, Table 5. It counts as cell-based.
Data set [1] concerns Staphylococcus aureus, strain ATCC 25923. The conditions noted are these: for S. aureus: Table 5, strain ATCC 25923; for MIC: S. aureus ATCC 25923.
The test system of data set [2] is Methicillin resistant Staphylococcus epidermidis (MRSE) strain ATCC 27626. The conditions noted are these: for MRSE: Table 5, strain ATCC 27626; for MIC: MRSE ATCC 27626.
The test system of data set [3] is Methicillin resistant Staphylococcus aureus (MRSA) strain ATCC 33591. To be noted: for MRSA: Table 5, strain ATCC 33591; for MIC: MRSA ATCC 33591.
For another data set, the system named is C. albicans. In words: Antimicrobial assay, Table 5. The format is cell-based.
The subject of the next data set is trypsin. As to the kind of experiment: in vitro. It counts as in vitro ADME. To be noted: pH 8.6. The method, then: Each peptide was dissolved in a 0.1 M NH4HCO3 buffer (pH 6.5) to yield a final peptide concentration of 1 mg/ml. A trypsin solution was prepared by dissolving 1 mg of trypsin in 50 ml 0.1 M NH4HCO3 buffer (pH 8.2). For the stability determination, 250 μl freshly made trypsin solution and 250 μl peptide solution were incubated in 2 ml of 0.1 M NH4HCO3 buffer (pH 8.6) at 37° C. on a rocking table. Aliquots of 0.5 ml were sampled at different time intervals, diluted with 0.5 ml water:acetonitrile (60:40 v/v) containing 1% TFA and analysed by RP-HPLC as described above. Samples without trypsin addition taken at 0 h and after 20 h at 37° C. were used as negative controls. Integration of the peak area at 254 nm for samples taken during the first 5 hours of the assay was used to generate the […].

A further data set has as its system Clostridium difficile. As to the kind of experiment: MIC microbroth dilution (CLSI). The format is cell-based. On the set-up: unit not given beside the values. The conditions noted are these: antibiotic-susceptible clinical isolate. Background: In broth dilution the organism is exposed to a series of concentrations in liquid medium.
The next data set relates to Microsporum canis. In words: MIC microbroth dilution (CLSI). The format is cell-based. To be noted: G.R. Micro collection.
A further data set has as its system Eggerthella lenta. As to the kind of experiment: MIC microbroth dilution (CLSI). The format is cell-based. On the set-up: unit not given beside the values. To be noted: ATCC 43055; SBB.
For data set [4], the system named is Trichophyton mentagrophytes. As to the kind of experiment: MIC microbroth dilution (CLSI). It counts as cell-based. The conditions noted are these: G.R. Micro collection.
Another data set has as its system Candida tropicalis. As to the kind of experiment: MIC microbroth dilution (CLSI). It counts as cell-based. To be noted: ATCC750 - reference strain.
Another data set deals with Acinetobacter baumanii. In words: MIC microbroth dilution (CLSI). The format is cell-based. On the set-up: unit not given beside the values. To be noted: antibiotic-susceptible clinical isolate. From the text: (§1) Cation-adjusted Mueller-Hinton broth (Oxoid Ltd., Basingstoke, UK and Trek Diagnostic Systems Ltd., East Grinstead, UK) (supplemented with 5% laked horse blood for Streptococcus spp., Corynebacterium jeikeium and Listeria monocytogenes) was used for aerobic bacteria, with an initial inoculum of approximately 10^5 colony-forming units (CFU)/m L.

Another data set concerns Cryptococcus neoformans. As to the kind of experiment: MIC microbroth dilution (CLSI). It counts as cell-based. The conditions noted are these: G.R. Micro collection.
The test system of data set [5] is Staphylococcus saprophyticus. As to the kind of experiment: MIC microbroth dilution (CLSI). It counts as cell-based. The conditions noted are these: antibiotic susceptible clinical isolate.
Text: as §1

For the next data set, the system named is Listeria monocytogenes. In words: MIC microbroth dilution (CLSI). The conditions noted are these: antibiotic-susceptible clinical isolate. The format is cell-based.
Text: as §1

A further data set has as its system Shigella sp. In words: MIC microbroth dilution (CLSI). The conditions noted are these: antibiotic-susceptible clinical isolate. It counts as cell-based.
Text: as §1

Data set [6] relates to Stenotrophomonas maltophilia. In words: MIC microbroth dilution (CLSI). The conditions noted are these: antibiotic-susceptible clinical isolate. The format is cell-based.
Text: as §1

A further data set deals with Salmonella sp. In words: MIC microbroth dilution (CLSI). The format is cell-based.
Text: as §1

In the next data set the test system is Enterococcus gallinarum. As to the kind of experiment: MIC microbroth dilution (CLSI). The format is cell-based. To be noted: vancomycin-resistant (VanC) clinical isolate.
Text: as §1

The next data set concerns Aspergillus niger. In words: MIC microbroth dilution (CLSI). To be noted: G.R. Micro collection. It counts as cell-based.
The test system of the next data set is Bacteroides fragilis. In words: MIC microbroth dilution (CLSI). It counts as cell-based. On the set-up: unit not given beside the values. The conditions noted are these: ATCC 25285; SBB.
Data set [7] concerns Trichophyton interdigitale. As to the kind of experiment: MIC microbroth dilution (CLSI). The conditions noted are these: G.R. Micro collection. The format is cell-based.
The next data set has as its system Streptococcus pyogenes. It counts as cell-based. The conditions noted are these: Macrolide (M-type) resistance clinical isolate.
Text: as §1

Another data set concerns P. aeruginosa. In words: Antimicrobial assay, Table 5. The format is cell-based.
For another data set, the system named is E. coli. As to the kind of experiment: Antimicrobial assay, Table 5. The format is cell-based.

The structures appear in SMILES notation. Values after ≈ are worked out from the molar mass of the structure shown. Where a SMILES comes first, the peptide text is derived from it. The star is where a group is joined. NHPhenethyl = c1ccc(CCN*)cc1

The values below come from patent publication US20230233736A1, “ANTIMICROBIAL FORMULATIONS COMPRISING SILICONE” (AMICOAT AS, priority 2020, published 2023).

Regarding `CC(C)(C)c1cc(C(C)(C)C)c2[nH]c(C(C)(C)C)c(C[C@H](NC(=O)[C@@H](N)CCCNC(=N)N)C(=O)N[C@@H](CCCNC(=N)N)C(=O)NC3CCCCC3)c2c1` [Compound 13], the S. pyogenes in the data set on S. pyogenes was below 2 mg/L. Moreover, the S. aureus in data set [1] is given as below 2 mg/L. This compound yielded an MRSE in data set [2] of 2 mg/L. In addition, the MRSA in [3] amounted to 2 mg/L. The compound also displayed a C. albicans in the data set with C. albicans of 10 mg/L.
On to `CC(C)CNC(=O)[C@H](CCCNC(=N)N)NC(=O)[C@H](Cc1c(C(C)(C)C)[nH]c2c(C(C)(C)C)cc(C(C)(C)C)cc12)NC(=O)[C@@H](N)CCCNC(=N)N` [Compound 12], for which the S. pyogenes in the data set on S. pyogenes stood at 2 mg/L. The compound further registered a S. aureus in data set [1] below 2 mg/L. In addition, in [2], the MRSE is given as 2 mg/L. The MRSA in [3] stood at 3 mg/L. In the data set with C. albicans, the C. albicans is reported as 10 mg/L.
As for `CCCNC(=O)[C@H](CCCNC(=N)N)NC(=O)[C@H](Cc1c(C(C)(C)C)[nH]c2c(C(C)(C)C)cc(C(C)(C)C)cc12)NC(=O)[C@@H](N)CCCNC(=N)N` [Compound 10], the S. pyogenes in the data set with S. pyogenes is given as 2 mg/L. The S. aureus in data set [1] is on record as 2 mg/L. The same compound registered an MRSE in [2] below 2 mg/L. Further, in data set [3], the MRSA is 3 mg/L. The C. albicans in the data set on C. albicans was 10 mg/L.
`CC(C)(C)c1cc(C(C)(C)C)c2[nH]c(C(C)(C)C)c(C[C@H](NC(=O)[C@@H](N)CCCNC(=N)N)C(=O)N[C@@H](CCCNC(=N)N)C(=O)NC3CCCC3)c2c1` [Compound 14]: the S. pyogenes with S. pyogenes was determined as 2 mg/L. For the same compound, the S. aureus in data set [1] is recorded as below 2 mg/L. The compound further showed an MRSE in data set [2] below 2 mg/L. For the same compound, the MRSA in [3] is recorded as above 15 mg/L. Also, the C. albicans in the data set on C. albicans turned out to be 10 mg/L.
With `CC(C)(C)c1cc(C(C)(C)C)c2[nH]c(C(C)(C)C)c(C[C@H](NC(=O)[C@@H](N)CCCCN)C(=O)N[C@@H](CCCCN)C(=O)NCCc3ccccc3)c2c1` [Compound 4], the half-life (in general, the time in which the quantity being followed falls by half) at 0.1 mg/ml in the data set on trypsin is above 24 h. Further, the MIC was below 2 µM in [2] and 3 µM (≈ 2.2 µg/mL) in data set [3].
For `N=C(N)NCCC[C@H](NC(=O)[C@H](Cc1c[nH]c2ccccc12)NC(=O)[C@@H](N)CCCNC(=N)N)C(=O)NCCc1ccccc1` [Compound 6, reference compound] (H-Arg-Trp-Arg-NHPhenethyl), the MIC in data set [1] was determined as 145 µM (≈ 89.9 µg/mL); in data set [2], 81 µM (≈ 50.2 µg/mL); in data set [3] it was 97 µM (≈ 60.1 µg/mL).
In the case of `N=C(N)NCCCC(N)C(=O)NC(Cc1ccc(-c2ccc3ccccc3c2)cc1)C(=O)NC(CCCNC(=N)N)C(=O)NCCc1ccccc1` (stereo not shown) [Compound 1], the MIC against Clostridium difficile stood at 32; against Microsporum canis, 8; in the data set on Eggerthella lenta, 16; in data set [1] it was 4 µM (≈ 2.83 µg/mL); in data set [4], 16; in the data set on Candida tropicalis, 2. The MIC in data set [2] was below 3 µM; with Acinetobacter baumanii, 64; in the data set with Cryptococcus neoformans, 4; in data set [3], below 3 µM; in data set [5], 1; in the data set with Listeria monocytogenes, 32. The MIC in the data set on Shigella sp was 32; in data set [6] it was 64; in the data set on Salmonella sp (antibiotic-susceptible clinical isolate), 16; in the data set on Salmonella sp (multi-drug resistant clinical isolate) it was 16; in the data set with Enterococcus gallinarum, 4; with Aspergillus niger it was 4. In addition, the MIC amounted to 64 in the data set on Bacteroides fragilis, 8 in [7] and 32 in the data set with Streptococcus pyogenes.
Take `N=C(N)NCCC[C@H](NC(=O)C(Cc1ccc(-c2cccc3ccccc23)cc1)NC(=O)[C@@H](N)CCCNC(=N)N)C(=O)NCCc1ccccc1` (stereo partly shown) [Compound 3]: the half-life at 0.1 mg/ml with trypsin is 20 h.
`CCCCNC(=O)[C@H](CCCNC(=N)N)NC(=O)[C@H](Cc1c(C(C)(C)C)[nH]c2c(C(C)(C)C)cc(C(C)(C)C)cc12)NC(=O)[C@@H](N)CCCNC(=N)N` [Compound 9]: the S. pyogenes in the data set on S. pyogenes stood at 2 mg/L. This compound also came in with a S. aureus in data set [1] of 2 mg/L. For the same compound, the MRSE in [2] is given as below 2 mg/L. In [3], this compound returned an MRSA of 3 mg/L. In the data set on C. albicans, this compound came in with a C. albicans of 10 mg/L.
`CCCCCCCCCCCCCCCCNC(=O)[C@H](CCCNC(=N)N)NC(=O)[C@H](Cc1c(C(C)(C)C)[nH]c2c(C(C)(C)C)cc(C(C)(C)C)cc12)NC(=O)[C@@H](N)CCCNC(=N)N` [Compound 11] gave a S. pyogenes in the data set with S. pyogenes of 6 mg/L. In the data set with P. aeruginosa, this compound gave a P. aeruginosa above 100 mg/L. Further, the S. aureus in [1] was 5 mg/L. For the same compound, the MRSE in data set [2] is 4 mg/L. In the data set on E. coli, this compound returned an E. coli above 100 mg/L. The compound further came in with an MRSA in data set [3] of 4 mg/L. This compound also came in with a C. albicans in the data set on C. albicans above 100 mg/L.
For the compound `N=C(N)NCCC[C@H](NC(=O)C(Cc1ccc(-c2ccc(-c3ccccc3)cc2)cc1)NC(=O)[C@@H](N)CCCNC(=N)N)C(=O)NCCc1ccccc1` (stereo partly shown) [Compound 5], the half-life at 0.1 mg/ml with trypsin was above 24 h. Further, the MIC came out at 5 µM (≈ 3.66 µg/mL) in data set [1], 3 µM (≈ 2.2 µg/mL) in data set [2] and 3 µM (≈ 2.2 µg/mL) in data set [3].
